Biological target: Mu-type opioid receptor (Homo sapiens, UniProt P35372)
Test: MOR antagonists, SAR follow-up, image-based (AID 2420)

Chain of Mu-type opioid receptor (P35372 whole entry): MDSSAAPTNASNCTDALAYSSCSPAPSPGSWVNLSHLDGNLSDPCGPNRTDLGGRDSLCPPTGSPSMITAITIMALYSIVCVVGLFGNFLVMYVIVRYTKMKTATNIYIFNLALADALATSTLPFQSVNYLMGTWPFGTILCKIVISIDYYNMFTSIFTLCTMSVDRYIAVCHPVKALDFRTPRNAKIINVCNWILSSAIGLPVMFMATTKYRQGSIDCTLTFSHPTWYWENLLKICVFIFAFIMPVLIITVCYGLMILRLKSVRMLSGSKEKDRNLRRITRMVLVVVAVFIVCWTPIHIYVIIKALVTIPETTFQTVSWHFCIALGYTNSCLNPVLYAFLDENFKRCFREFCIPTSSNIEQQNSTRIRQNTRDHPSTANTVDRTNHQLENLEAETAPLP

IC50 | Compound
> 32 µM | Oc1ccc(CN=Nc2ccnc3cc(Cl)ccc23)cc1O [(4Z)-4-[[2-(7-chloroquinolin-4-yl)hydrazinyl]methylidene]-2-hydroxycyclohexa-2,5-dien-1-one]
> 32 µM | CCC(N=Nc1ccnc2cc(Cl)ccc12)c1ccc(O)cc1 (configuration not stated) [4-[1-[2-(7-chloroquinolin-4-yl)hydrazinyl]propylidene]cyclohexa-2,5-dien-1-one]
